According to patent EP4177246A1, “FUSED OXAZEPINES AS INHIBITORS OF PEROXIREDOXINS” (Centro Atlántico del Medicamento, SA, priority 2021, dated 2023):

How the values were obtained:
PRDX1 = target: T1, PRDX1 (Homo sapiens, UniProt Q06830); assay: Competitive immunoprecipitation / immunoblot for PRDX1 with compound-coupled resin; assay type: binding; conditions: untreated MDA-MB-231 cell lysates; not trapped from lysates pre-treated with unbound compound
T1 construct: treatment of untreated MDA-MB-231 cell lysates with a resin coupled to compound 24; endogenous in cells; host or cells: MDA-MB-231 (ATCC HTB-26)
T1 sequence (Q06830 1-199): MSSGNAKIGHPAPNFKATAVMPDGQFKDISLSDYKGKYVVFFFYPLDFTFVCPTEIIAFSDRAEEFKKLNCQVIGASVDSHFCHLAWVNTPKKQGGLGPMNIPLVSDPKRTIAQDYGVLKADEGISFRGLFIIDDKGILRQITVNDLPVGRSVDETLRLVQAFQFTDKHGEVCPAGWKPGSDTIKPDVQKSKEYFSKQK
From the text: As indicated in the brief description of the figures, the treatment of untreated MDA-MB-231 cell lysates with a resin coupled to compound 24 (24-coupled resin) were subjected to immunoprecipitation analysis for PRDX1 [for the methodology to perform immunoprecipitation and western blot analysis of PRDXs see Am J Physiol Heart Circ Physiol. 2008 Jul; 295(1): H425-H433 (ref. 34); and Oncogene. 2013 November 7; 32(45): 5302-5314 (ref. 35)].

[1] = system: JNK, p38, AKT, ERK1/2, STAT3; assay: Immunoblot of phosphorylated MAPKs, STAT3 and Akt in treated TNBC cells; assay type: cell-based, human; conditions: MDA-MB-231 5 µM, 1 h, BT-549 1 µM, 3 h
Protocol: MDA-MB-231 cells were incubated with compound 24 (5 µM, 1 h), then washed with cold PBS-vanadate (1 mM). The same process was done with BT-549 cells with the exception that the cells were incubated with compound 24 at 1 µM of 3 h. PRDX1 knockdown cells, or compound 24 treated cells, were then lysed with cold RIPA containing protease and phosphatase inhibitors or with a buffer containing 20 mM Tris-HCI, pH = 7, 140 mM NaCl, 50 mM EDTA, 10% glycerol, 1% NP-40, and protease and phosphatase inhibitors. Lysates were centrifuged at 20,000 × g, at 4 °C for 10 min, and supernatants were collected. Protein concentration of lysis extracts was measured by BCA. Electrophoresis sample buffer containing 10% β-mercaptoethanol was added to 60 µg of extracts. In the case of non-reducing electrophoresis, cells were incubated with cold PBS containing 25 mM NEM for 30 min before lysis, and β-mercaptoethanol was omitted in the electrophoresis sample buffer. Samples were separated by sodium dodecyl sulfate - polyacrylamide gel electrophoresis (SDS-PAGE) and transferred onto nitrocellulose or PVDF (polyvinylidene difluoride) membranes. […] Protein bands were visualized with the Immun-Star Western chemiluminescence kit (Bio-rad) using the ChemiDoc XRS System and the image analysis program Quantity One (Bio-Rad). […]

HEL 92.1.7 = assay: MTT cell viability assay, HEL cells; assay type: cell-based; conditions: Homo sapiens, 48 h drug exposure
Outline: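 Human erythroleukemia HEL 92.1.7 cells, 1000-5000 cells/well in 10% FBS medium, treated 24 h after seeding with compound (10 to 0,01microM) or 0.05% DMSO for 48 h. MTT (0.3 mg/ml) 2-4h at 37 °C, OD 595 nm; IC50 by non-linear regression of log concentration vs normalized response, 3 replicates.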

SMILES: O=C1C2=C(C(=O)c3c(O)ccc(O)c31)N(c1cccnc1)Cc1ccccc1O2 [Compound 24, 7,10-dihydroxy-12-(pyridin-3-yl)-12,13-dihydrobenzo[f]naphtho[2,3-b][1,4]oxazepine-6,11-dione]
- trapping of PRDX1 by compound-coupled resin (PRDX1): PRDX1 was clearly trapped by the 24-coupled resin
- activation of STAT3 [1]: a decrease in the activation of STAT3
- levels of activated JNK, p38, AKT and ERK1/2 [1]: an increase in the levels of activated JNK, p38, AKT and ERK1/2
- IC50 (HEL 92.1.7): 0.09 µM
